Measured values from patent publication US20220370642A1, “METHODS OF DETECTING NEUROLOGICAL DISORDERS VIA BINDING TO PHOSPHORYLATED TAU PROTEIN” (Amydis, Inc., priority 2019, published 2022).

Test system: hyperphosphorylated 3RTau
Assay: Tau protein retinal staining: colocalization of Compound 5 with 3RTau antibody in retinal sections (confocal fluorescence)
Format: binding, mice
Details: for Pearson correlation coefficient (PCC) of colocalization with 3RTau antibody: Image J analysis, -1=complete anti-colocalization, 0=non colocalization, 1=complete colocalization
Protocol: Retinas of different age of three-repeat tau (“3RTau”) mice (3 months, 6 months and 12 months) were mounted on slides. The retina were washed with PBS 2 times for 5 minutes. A solution of 98% formic acid was added—5 minutes for antigen retrieval. The sampled were washed with distilled water—2 times for 5 minutes. The samples were equilibrated in 1×PBS for 15 minutes, then blocked with 10% goat/donkey serum in 1×PBST (depending on antibodies) for 1 hour. The samples were then incubated with three-repeat tau antibody in 10% goat serum in 1×PBST at 4 degree C. overnight, then rinsed with 1×PBST 3 times for 5 minutes each. Samples were incubated with secondary antibody (Alexa Fluor 568 Anti mouse) in 1×PBST for 1 hour, then covered with foil, then rinsed with 1×PBST 3 times for 5 minutes each. Samples were stained with Compound 5 working solution for 30 minutes at room temperature, covered in foil, and washed with 1×PBS 3 times for 5 minutes each. Samples were stained with DAPI (300 nM or 100 ng/mL) in dark for 10 minutes, then tissues were washed 3×10 minutes with PBS. Antifade DAKO mounting medium was added, and coverslip and kept under foil until imaging. Images were obtained using a Leica confocal microscope.
Fluorescent imaging study was conducted on a Leica DMI 4000B microscope (Leica, Germany) equipped with a TCS SPE camera and Leica 10, 20 and 40× objectives. The following lasers were used to visualize fluorescent probes pertaining to DAPI (blue, nuclear stain), Compound 5 (green) and 3RTau (red): 408, 488 and 568 nm. Z-stacked images were taken at 40× at 0.5 μm increments to visualize the entire thickness of the tissue.

N#C/C(=C\c1ccc2cc(N3CCCCC3)ccc2c1)C(=O)NCC(O)CO (stereo not drawn) [Compound 5]
Pearson correlation coefficient (PCC) of colocalization with 3RTau antibody (3RTau mouse retinal section): 0.67
colocalization with 3Rtau immunoreactivity in retina (immunostaining) (3RTau transgenic mice retina, 3, 6 and 12 months): colocalizes
Pearson correlation coefficient (PCC) of colocalization with 3RTau antibody (control mouse retinal section): 0.04
